Test results published in PubChem BioAssay (NCI).
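Five concentrations, 48 hours, 96-well plates. GI50: concentration for 50% inhibition of growth. TGI marks complete inhibition of growth.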

Legend:
Assay in all cases: growth of human tumour cells (NCI), 48 h
HCT-116 colon = test system: HCT-116 colon
OVCAR-3 ovarian = test system: OVCAR-3 ovarian
SNB-19 CNS = test system: SNB-19 CNS
KM12 colon = test system: KM12 colon
UACC-257 melanoma = test system: UACC-257 melanoma
BT-549 breast = test system: BT-549 breast
SF-295 CNS = test system: SF-295 CNS
NCI-H226 lung = test system: NCI-H226 lung
SK-MEL-2 melanoma = test system: SK-MEL-2 melanoma
T-47D breast = test system: T-47D breast
HOP-62 NSCLC = test system: HOP-62 NSCLC
MDA-MB-231 breast = test system: MDA-MB-231 breast
A549 NSCLC = test system: A549 NSCLC
MCF7 breast = test system: MCF7 breast
HT29 colon = test system: HT29 colon
HL-60(TB) leukemia = test system: HL-60(TB) leukemia
UACC-62 melanoma = test system: UACC-62 melanoma
NCI-H460 lung = test system: NCI-H460 lung
SK-OV-3 ovarian = test system: SK-OV-3 ovarian
M14 melanoma = test system: M14 melanoma
NCI-H23 lung = test system: NCI-H23 lung
CCRF-CEM leukemia = test system: CCRF-CEM leukemia
RPMI-8226 leukemia = test system: RPMI-8226 leukemia
SR leukemia = test system: SR leukemia
A498 renal = test system: A498 renal
IGROV1 ovarian = test system: IGROV1 ovarian
RXF 393 renal = test system: RXF 393 renal
SN12C renal = test system: SN12C renal
EKVX NSCLC = test system: EKVX NSCLC
MOLT-4 leukemia = test system: MOLT-4 leukemia
UO-31 renal = test system: UO-31 renal
CAKI-1 renal = test system: CAKI-1 renal
HCC-2998 colon = test system: HCC-2998 colon
MDA-MB-435 = test system: MDA-MB-435
OVCAR-8 ovarian = test system: OVCAR-8 ovarian
HCT-15 colon = test system: HCT-15 colon
K-562 leukemia = test system: K-562 leukemia
PC-3 prostate = test system: PC-3 prostate
SF-268 CNS = test system: SF-268 CNS
HS 578T breast = test system: HS 578T breast
COLO 205 colon = test system: COLO 205 colon
TK-10 renal = test system: TK-10 renal
OVCAR-5 ovarian = test system: OVCAR-5 ovarian
SK-MEL-5 melanoma = test system: SK-MEL-5 melanoma
SK-MEL-28 melanoma = test system: SK-MEL-28 melanoma
OVCAR-4 ovarian = test system: OVCAR-4 ovarian
ACHN renal = test system: ACHN renal
SF-539 CNS = test system: SF-539 CNS
786-0 renal = test system: 786-0 renal
DU-145 prostate = test system: DU-145 prostate
MALME-3M melanoma = test system: MALME-3M melanoma
MDA-MB-468 breast = test system: MDA-MB-468 breast
NCI/ADR-RES ovarian = test system: NCI/ADR-RES ovarian
LOX IMVI melanoma = test system: LOX IMVI melanoma
NCI-H522 lung = test system: NCI-H522 lung
U251 CNS = test system: U251 CNS
SW-620 colon = test system: SW-620 colon

CN1CCN(c2ccc(C(=O)/C=C/c3ccc(Br)cc3)cc2)CC1
GI50 (HCT-116 colon): 3.54 µM | TGI (HCT-116 colon): 18.5 µM | GI50 (OVCAR-3 ovarian): 24.4 µM | TGI (OVCAR-3 ovarian): 96 µM | GI50 (SNB-19 CNS): > 100 µM | TGI (SNB-19 CNS): > 100 µM | GI50 (KM12 colon): 16.6 µM | TGI (KM12 colon): > 100 µM | GI50 (UACC-257 melanoma): > 100 µM | TGI (UACC-257 melanoma): > 100 µM | GI50 (BT-549 breast): 12 µM | TGI (BT-549 breast): 46.7 µM | GI50 (SF-295 CNS): 41.3 µM | TGI (SF-295 CNS): > 100 µM | GI50 (NCI-H226 lung): 45.5 µM | TGI (NCI-H226 lung): > 100 µM | GI50 (SK-MEL-2 melanoma): > 100 µM | TGI (SK-MEL-2 melanoma): > 100 µM | GI50 (T-47D breast): 28.7 µM | TGI (T-47D breast): > 100 µM | GI50 (HOP-62 NSCLC): > 100 µM | TGI (HOP-62 NSCLC): > 100 µM | GI50 (MDA-MB-231 breast): > 100 µM | TGI (MDA-MB-231 breast): > 100 µM | GI50 (A549 NSCLC): 28.1 µM | TGI (A549 NSCLC): > 100 µM | GI50 (MCF7 breast): 5.67 µM | TGI (MCF7 breast): > 100 µM | GI50 (HT29 colon): 15.8 µM | TGI (HT29 colon): > 100 µM | GI50 (HL-60(TB) leukemia): 10.7 µM | TGI (HL-60(TB) leukemia): 33.6 µM | GI50 (UACC-62 melanoma): 17.1 µM | TGI (UACC-62 melanoma): 38.2 µM | GI50 (NCI-H460 lung): > 100 µM | TGI (NCI-H460 lung): > 100 µM | GI50 (SK-OV-3 ovarian): 53.9 µM | TGI (SK-OV-3 ovarian): > 100 µM | GI50 (M14 melanoma): 36.6 µM | TGI (M14 melanoma): > 100 µM | GI50 (NCI-H23 lung): > 100 µM | TGI (NCI-H23 lung): > 100 µM | GI50 (CCRF-CEM leukemia): 40.9 µM | TGI (CCRF-CEM leukemia): 95.5 µM | GI50 (RPMI-8226 leukemia): 5.38 µM | TGI (RPMI-8226 leukemia): 32.2 µM | GI50 (SR leukemia): 8.37 µM | TGI (SR leukemia): 48.7 µM | GI50 (A498 renal): > 100 µM | TGI (A498 renal): > 100 µM | GI50 (IGROV1 ovarian): 34.5 µM | TGI (IGROV1 ovarian): > 100 µM | GI50 (RXF 393 renal): 17.2 µM | TGI (RXF 393 renal): > 100 µM | GI50 (SN12C renal): 22.7 µM | TGI (SN12C renal): > 100 µM | GI50 (EKVX NSCLC): > 100 µM | TGI (EKVX NSCLC): > 100 µM | GI50 (MOLT-4 leukemia): 31.3 µM | TGI (MOLT-4 leukemia): > 100 µM | GI50 (UO-31 renal): 16.9 µM | TGI (UO-31 renal): > 100 µM | GI50 (CAKI-1 renal): 32.2 µM | TGI (CAKI-1 renal): > 100 µM | GI50 (HCC-2998 colon): 15.2 µM | TGI (HCC-2998 colon): 50.4 µM | GI50 (MDA-MB-435): 22.4 µM | TGI (MDA-MB-435): 98 µM | GI50 (OVCAR-8 ovarian): 54.9 µM | TGI (OVCAR-8 ovarian): > 100 µM | GI50 (HCT-15 colon): 5.64 µM | TGI (HCT-15 colon): > 100 µM | GI50 (K-562 leukemia): 6.96 µM | TGI (K-562 leukemia): 78.5 µM | GI50 (PC-3 prostate): 28.2 µM | TGI (PC-3 prostate): > 100 µM | GI50 (SF-268 CNS): > 100 µM | TGI (SF-268 CNS): > 100 µM | GI50 (HS 578T breast): > 100 µM | TGI (HS 578T breast): > 100 µM | GI50 (COLO 205 colon): 50.1 µM | TGI (COLO 205 colon): > 100 µM | GI50 (TK-10 renal): > 100 µM | TGI (TK-10 renal): > 100 µM | GI50 (OVCAR-5 ovarian): 51.9 µM | TGI (OVCAR-5 ovarian): > 100 µM | GI50 (SK-MEL-5 melanoma): 22.5 µM | TGI (SK-MEL-5 melanoma): > 100 µM | GI50 (SK-MEL-28 melanoma): 76.2 µM | TGI (SK-MEL-28 melanoma): > 100 µM | GI50 (OVCAR-4 ovarian): 70.8 µM | TGI (OVCAR-4 ovarian): > 100 µM | GI50 (ACHN renal): 54.9 µM | TGI (ACHN renal): > 100 µM | GI50 (SF-539 CNS): 24.4 µM | TGI (SF-539 CNS): > 100 µM | GI50 (786-0 renal): 29.5 µM | TGI (786-0 renal): > 100 µM | GI50 (DU-145 prostate): 86.6 µM | TGI (DU-145 prostate): > 100 µM | GI50 (MALME-3M melanoma): > 100 µM | TGI (MALME-3M melanoma): > 100 µM | GI50 (MDA-MB-468 breast): 7.85 µM | TGI (MDA-MB-468 breast): 41 µM | GI50 (NCI/ADR-RES ovarian): 76 µM | TGI (NCI/ADR-RES ovarian): > 100 µM | GI50 (LOX IMVI melanoma): 13.7 µM | TGI (LOX IMVI melanoma): 50.6 µM | GI50 (NCI-H522 lung): > 100 µM | TGI (NCI-H522 lung): > 100 µM | GI50 (U251 CNS): 20.8 µM | TGI (U251 CNS): > 100 µM | GI50 (SW-620 colon): 23.2 µM | TGI (SW-620 colon): > 100 µM
